According to PubChem BioAssay (NCI):
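48-hour exposure; five concentrations; linearly interpolated endpoints. The concentration for full growth arrest is given as TGI.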

Columns and labels:
Assay in all cases: NCI tumour cell line growth inhibition, 48 h
UACC-62 melanoma = tested on: UACC-62 melanoma
KM12 colon = tested on: KM12 colon
OVCAR-3 ovarian = tested on: OVCAR-3 ovarian
CCRF-CEM leukemia = tested on: CCRF-CEM leukemia
HT29 colon = tested on: HT29 colon
NCI-H522 lung = tested on: NCI-H522 lung
M19-MEL melanoma = tested on: M19-MEL melanoma
SNB-75 CNS = tested on: SNB-75 CNS
TK-10 renal = tested on: TK-10 renal
OVCAR-8 ovarian = tested on: OVCAR-8 ovarian
786-0 renal = tested on: 786-0 renal
K-562 leukemia = tested on: K-562 leukemia
DLD-1 colon = tested on: DLD-1 colon
SK-MEL-5 melanoma = tested on: SK-MEL-5 melanoma
DMS 273 small cell lung = tested on: DMS 273 small cell lung
SNB-78 CNS = tested on: SNB-78 CNS
A549 NSCLC = tested on: A549 NSCLC
MOLT-4 leukemia = tested on: MOLT-4 leukemia
MALME-3M melanoma = tested on: MALME-3M melanoma
SF-295 CNS = tested on: SF-295 CNS
ACHN renal = tested on: ACHN renal
HOP-92 NSCLC = tested on: HOP-92 NSCLC
IGROV1 ovarian = tested on: IGROV1 ovarian
SF-539 CNS = tested on: SF-539 CNS
COLO 205 colon = tested on: COLO 205 colon
EKVX NSCLC = tested on: EKVX NSCLC
XF 498 CNS = tested on: XF 498 CNS
HCT-15 colon = tested on: HCT-15 colon
SW-620 colon = tested on: SW-620 colon
SNB-19 CNS = tested on: SNB-19 CNS
M14 melanoma = tested on: M14 melanoma
HOP-62 NSCLC = tested on: HOP-62 NSCLC
LXFL 529 NSCLC = tested on: LXFL 529 NSCLC
NCI-H460 lung = tested on: NCI-H460 lung
NCI-H23 lung = tested on: NCI-H23 lung
HL-60(TB) leukemia = tested on: HL-60(TB) leukemia
U251 CNS = tested on: U251 CNS
SF-268 CNS = tested on: SF-268 CNS
HCC-2998 colon = tested on: HCC-2998 colon
KM20L2 colon = tested on: KM20L2 colon
SK-MEL-28 melanoma = tested on: SK-MEL-28 melanoma
UACC-257 melanoma = tested on: UACC-257 melanoma
UO-31 renal = tested on: UO-31 renal
RXF 393 renal = tested on: RXF 393 renal
DMS 114 small cell lung = tested on: DMS 114 small cell lung
OVCAR-4 ovarian = tested on: OVCAR-4 ovarian
OVCAR-5 ovarian = tested on: OVCAR-5 ovarian
HCT-116 colon = tested on: HCT-116 colon
SK-MEL-2 melanoma = tested on: SK-MEL-2 melanoma
RPMI-8226 leukemia = tested on: RPMI-8226 leukemia
SN12C renal = tested on: SN12C renal
SK-OV-3 ovarian = tested on: SK-OV-3 ovarian
LOX IMVI melanoma = tested on: LOX IMVI melanoma
NCI-H226 lung = tested on: NCI-H226 lung
CAKI-1 renal = tested on: CAKI-1 renal
HOP-18 NSCLC = tested on: HOP-18 NSCLC
RXF-631 renal = tested on: RXF-631 renal
A498 renal = tested on: A498 renal

Compound: C#Cc1cccc(N2C(=O)c3c(c(-c4ccccc4)c(-c4ccc(Cc5ccc(-c6c(-c7ccccc7)c7c(c(-c8ccccc8)c6-c6ccccc6)C(=O)N(c6cccc(C#C)c6)C7=O)cc5)cc4)c(-c4ccccc4)c3-c3ccccc3)C2=O)c1
- TGI (UACC-62 melanoma): > 100 µM
- TGI (KM12 colon): > 100 µM
- TGI (OVCAR-3 ovarian): > 100 µM
- TGI (CCRF-CEM leukemia): > 100 µM
- TGI (HT29 colon): > 100 µM
- TGI (NCI-H522 lung): > 100 µM
- TGI (M19-MEL melanoma): 52 µM
- TGI (SNB-75 CNS): 79.9 µM
- TGI (TK-10 renal): 53.3 µM
- TGI (OVCAR-8 ovarian): > 100 µM
- TGI (786-0 renal): > 100 µM
- TGI (K-562 leukemia): > 100 µM
- TGI (DLD-1 colon): > 100 µM
- TGI (SK-MEL-5 melanoma): 62 µM
- TGI (DMS 273 small cell lung): > 100 µM
- TGI (SNB-78 CNS): > 100 µM
- TGI (A549 NSCLC): > 100 µM
- TGI (MOLT-4 leukemia): > 100 µM
- TGI (MALME-3M melanoma): > 100 µM
- TGI (SF-295 CNS): > 100 µM
- TGI (ACHN renal): > 100 µM
- TGI (HOP-92 NSCLC): 29 µM
- TGI (IGROV1 ovarian): 45.2 µM
- TGI (SF-539 CNS): > 100 µM
- TGI (COLO 205 colon): 66.5 µM
- TGI (EKVX NSCLC): > 100 µM
- TGI (XF 498 CNS): 72.7 µM
- TGI (HCT-15 colon): > 100 µM
- TGI (SW-620 colon): > 100 µM
- TGI (SNB-19 CNS): > 100 µM
- TGI (M14 melanoma): 41.5 µM
- TGI (HOP-62 NSCLC): > 100 µM
- TGI (LXFL 529 NSCLC): > 100 µM
- TGI (NCI-H460 lung): > 100 µM
- TGI (NCI-H23 lung): > 100 µM
- TGI (HL-60(TB) leukemia): > 100 µM
- TGI (U251 CNS): > 100 µM
- TGI (SF-268 CNS): > 100 µM
- TGI (HCC-2998 colon): > 100 µM
- TGI (KM20L2 colon): > 100 µM
- TGI (SK-MEL-28 melanoma): > 100 µM
- TGI (UACC-257 melanoma): > 100 µM
- TGI (UO-31 renal): > 100 µM
- TGI (RXF 393 renal): > 100 µM
- TGI (DMS 114 small cell lung): > 100 µM
- TGI (OVCAR-4 ovarian): > 100 µM
- TGI (OVCAR-5 ovarian): > 100 µM
- TGI (HCT-116 colon): > 100 µM
- TGI (SK-MEL-2 melanoma): > 100 µM
- TGI (RPMI-8226 leukemia): > 100 µM
- TGI (SN12C renal): > 100 µM

Compound: CC1=C(C(=O)CC(=O)C(=O)Nc2cc(C)ccc2C)Sc2ccccc2N1
- TGI (UACC-62 melanoma): > 100 µM
- TGI (KM12 colon): > 100 µM
- TGI (OVCAR-3 ovarian): > 100 µM
- TGI (CCRF-CEM leukemia): > 100 µM
- TGI (HT29 colon): > 100 µM
- TGI (NCI-H522 lung): > 100 µM
- TGI (M19-MEL melanoma): > 100 µM
- TGI (TK-10 renal): > 100 µM
- TGI (OVCAR-8 ovarian): > 100 µM
- TGI (786-0 renal): > 100 µM
- TGI (K-562 leukemia): > 100 µM
- TGI (DLD-1 colon): > 100 µM
- TGI (SK-MEL-5 melanoma): > 100 µM
- TGI (SNB-78 CNS): > 100 µM
- TGI (A549 NSCLC): > 100 µM
- TGI (MOLT-4 leukemia): > 100 µM
- TGI (MALME-3M melanoma): > 100 µM
- TGI (SF-295 CNS): > 100 µM
- TGI (ACHN renal): > 100 µM
- TGI (HOP-92 NSCLC): > 100 µM
- TGI (IGROV1 ovarian): > 100 µM
- TGI (SF-539 CNS): > 100 µM
- TGI (EKVX NSCLC): > 100 µM
- TGI (XF 498 CNS): > 100 µM
- TGI (HCT-15 colon): > 100 µM
- TGI (SW-620 colon): > 100 µM
- TGI (SNB-19 CNS): > 100 µM
- TGI (M14 melanoma): > 100 µM
- TGI (HOP-62 NSCLC): > 100 µM
- TGI (LXFL 529 NSCLC): > 100 µM
- TGI (SK-OV-3 ovarian): > 100 µM
- TGI (LOX IMVI melanoma): > 100 µM
- TGI (NCI-H23 lung): > 100 µM
- TGI (HL-60(TB) leukemia): > 100 µM
- TGI (U251 CNS): > 100 µM
- TGI (SF-268 CNS): > 100 µM
- TGI (HCC-2998 colon): > 100 µM
- TGI (SK-MEL-28 melanoma): > 100 µM
- TGI (UACC-257 melanoma): > 100 µM
- TGI (UO-31 renal): > 100 µM
- TGI (NCI-H226 lung): > 100 µM
- TGI (CAKI-1 renal): > 100 µM
- TGI (RXF 393 renal): > 100 µM
- TGI (DMS 114 small cell lung): > 100 µM
- TGI (OVCAR-4 ovarian): > 100 µM
- TGI (OVCAR-5 ovarian): > 100 µM
- TGI (HOP-18 NSCLC): > 100 µM
- TGI (HCT-116 colon): > 100 µM
- TGI (SK-MEL-2 melanoma): > 100 µM
- TGI (RXF-631 renal): > 100 µM
- TGI (RPMI-8226 leukemia): > 100 µM
- TGI (SN12C renal): > 100 µM

Compound: CC(=O)N/N=C1\CC(C)(C)C2CCC1C2 (centres undefined)
- TGI (UACC-62 melanoma): > 100 µM
- TGI (KM12 colon): > 100 µM
- TGI (OVCAR-3 ovarian): > 100 µM
- TGI (CCRF-CEM leukemia): > 100 µM
- TGI (NCI-H522 lung): > 100 µM
- TGI (M19-MEL melanoma): > 100 µM
- TGI (SNB-75 CNS): > 100 µM
- TGI (TK-10 renal): > 100 µM
- TGI (OVCAR-8 ovarian): > 100 µM
- TGI (786-0 renal): > 100 µM
- TGI (K-562 leukemia): > 100 µM
- TGI (SK-MEL-5 melanoma): > 100 µM
- TGI (DMS 273 small cell lung): > 100 µM
- TGI (SNB-78 CNS): > 100 µM
- TGI (A549 NSCLC): > 100 µM
- TGI (MOLT-4 leukemia): > 100 µM
- TGI (MALME-3M melanoma): > 100 µM
- TGI (SF-295 CNS): > 100 µM
- TGI (ACHN renal): > 100 µM
- TGI (HOP-92 NSCLC): > 100 µM
- TGI (IGROV1 ovarian): > 100 µM
- TGI (SF-539 CNS): > 100 µM
- TGI (COLO 205 colon): > 100 µM
- TGI (EKVX NSCLC): > 100 µM
- TGI (XF 498 CNS): > 100 µM
- TGI (HCT-15 colon): > 100 µM
- TGI (SW-620 colon): > 100 µM
- TGI (SNB-19 CNS): > 100 µM
- TGI (M14 melanoma): > 100 µM
- TGI (A498 renal): > 100 µM
- TGI (HOP-62 NSCLC): > 100 µM
- TGI (LXFL 529 NSCLC): > 100 µM
- TGI (SK-OV-3 ovarian): > 100 µM
- TGI (NCI-H460 lung): > 100 µM
- TGI (LOX IMVI melanoma): > 100 µM
- TGI (NCI-H23 lung): > 100 µM
- TGI (HL-60(TB) leukemia): > 100 µM
- TGI (U251 CNS): > 100 µM
- TGI (SF-268 CNS): > 100 µM
- TGI (SK-MEL-28 melanoma): > 100 µM
- TGI (UACC-257 melanoma): > 100 µM
- TGI (UO-31 renal): > 100 µM
- TGI (CAKI-1 renal): > 100 µM
- TGI (RXF 393 renal): > 100 µM
- TGI (DMS 114 small cell lung): > 100 µM
- TGI (OVCAR-4 ovarian): > 100 µM
- TGI (OVCAR-5 ovarian): > 100 µM
- TGI (HCT-116 colon): > 100 µM
- TGI (SK-MEL-2 melanoma): > 100 µM
- TGI (RPMI-8226 leukemia): > 100 µM
- TGI (SN12C renal): > 100 µM
